# Results reported in patent US11339171B2, “MDM2 inhibitors” (Gan & Lee Pharmaceuticals, priority 2017, dated 2022).
# Where “and” joins values, the source holds several entries; their conditions need not be identical. Equal values may be shown once. Read-outs that look alike come from different tables or passages of the source.
# Tests used:
# MDM2 = target: T1, MDM2 (Homo sapiens, UniProt Q00987); assay: Inhibition test of MDM2-P53 (GST-MDM2, Biotin-P53, Anti-GST-Tb, SA-XL665); assay type: binding; settings: for inhibitory effect on MDM2 compared with positive control compound HDM201: labels are Example numbers, the compounds with S-configuration are meant
# T1 construct: made in house
# T1 sequence (Q00987 whole entry): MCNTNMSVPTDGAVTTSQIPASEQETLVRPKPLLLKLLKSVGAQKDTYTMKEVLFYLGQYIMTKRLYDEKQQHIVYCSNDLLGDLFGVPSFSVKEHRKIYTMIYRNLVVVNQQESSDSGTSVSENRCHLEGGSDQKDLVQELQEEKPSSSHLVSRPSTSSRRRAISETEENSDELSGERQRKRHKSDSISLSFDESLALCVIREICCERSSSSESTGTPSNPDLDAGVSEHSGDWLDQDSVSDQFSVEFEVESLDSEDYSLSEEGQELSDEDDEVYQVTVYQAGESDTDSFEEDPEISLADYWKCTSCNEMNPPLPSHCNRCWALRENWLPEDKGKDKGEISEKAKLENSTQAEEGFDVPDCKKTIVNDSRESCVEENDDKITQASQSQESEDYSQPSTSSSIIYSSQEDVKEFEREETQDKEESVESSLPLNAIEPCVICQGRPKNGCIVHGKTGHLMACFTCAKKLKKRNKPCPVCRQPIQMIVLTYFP
# Protocol: Experimental purpose: To determine the inhibitory activities of the compounds of the present invention on MDM2.
# The present experiment uses the following assay methods/instruments/reagents:
# Buffer: 1×PBS+0.1% BSA+5 mM DTT; MDM2 Buffer: Buffer+1 mM AEBSF
# GST-MDM2: The final concentration is 4 nM, and it is required to formulate a 20 nM (5×) solution. A mother liquor is diluted by 3500 folds, wherein the mother liquor is 10-fold diluted first, and then 350-fold diluted.
# Anti-GST-Tb: The final concentration is 2×, and a mother liquor is diluted by 50 folds.
# MIX: GST-MDM2, Biotin-P53, SA-XL665 and Anti-GST-Tb were mixed according to a ratio of 4:4:5:5.
# Sample: Preparation of a sample (10 mM in DMSO) solution: a. 3 μL sample+7 μL DMSO+20 μL DMSO were formulated to give an initial concentration of 1 mM and mixed well; b. in plate 1, twelve 5-fold serial dilutions (sequentially prepared by adding 10 μL of the last sample to 40 μL DMSO) were prepared and mixed well, individually; c. plate 2 was taken, 45 μL of Buffer was added to each well, and 5 μL of dilution at each concentration was taken from plate 1 and added to the corresponding well in plate 2 (the concentration in well 1 was 100 μM), and mixed well.
# 1. 18 μL of MIX was added to a 384-well plate, and centrifugation was performed at 4500 rpm for 5 min.
# 2. 2 μL of sample was added correspondingly to each well, the resultant was centrifuged at 25° C. and 4500 rpm for 5 min, and shaked at 25° C. for 90 min on a shaker.
# Readings were obtained from the Microplate reader, and data was processed by Graphpad Prism 6.0.
# [1] = Pharmacokinetics in ICR mice after intravenous and intragastric administration; assay type: in vivo; settings: for MRT last: read-out: MRT(0-t); for MRT inf: read-out: MRT(0-∞); for Tmax: read-out: Tmax; for Vd: read-out: Vz; for half-life: read-out: t1/2 (converted)
# Protocol: Experimental Example 3 Determination of the Pharmacokinetics of the Mdm2 Inhibitors of the Present Invention in Mice
# ICR mice were used as the test animals, and the concentrations of the drugs in plasma of mice at different time points after intravenous administration and intragastric administration of the representative compounds were measured by a LC/MS/MS method, so as to study the pharmacokinetic behavior of the compounds of the present invention in mice and evaluate the pharmacokinetic characteristics thereof.
# Some compounds prepared in Examples 1-180 of the present invention.
# The control drug HDM201 was prepared by the method disclosed in patent No. CN104203952A.
# Healthy adult ICR mice, male, 6-9 weeks old, weighing 20-30 g, purchased from Shanghai Xipuer-Bikai Laboratory Animal Co., Ltd., Animal Production License No.: SCXK (HU) 2013-0016
# 3.2.3 Preparation of Test Drugs
# Intragastric or intravenous administration: an appropriate amount of sample was weighed, dissolved in 5% DMSO+40% PEG400+55% (10% HP-β-CD in Saline) to prepare a 0.5 mg/ml solution for intragastric or intravenous administration.
# 3.2.4 Administration of Test Drugs
# Intravenous administration: for each test compound, 3 male ICR mice were administered intravenously at a dose of 2 mg/kg and an administration volume of […] after fasting overnight.
# Intragastric administration: for each test compound, 3 male ICR mice were administered intragastrically at a dose of 5 mg/kg and an administration volume of […] after fasting overnight.
# 3.3 Experimental Operation
# The collected plasma was stored at −80° C. before analysis. The plasma sample was analyzed by LC-MS/MS, and the sample was pretreated by protein precipitation method. The linear range of sample analysis was 1 to 2000 ng/ml. The lowest quantification limit was 1 ng/mL. WinNonlin (Pharsight, USA) was used to calculate the following pharmacokinetic parameters: area under the curve AUC(0-t), area under the curve AUC(0-∞), half-life t1/2, retention time MRT(0-∞), blood drug concentration Cmax, time taken to reach the peak blood drug concentration Tmax, bioavailability F, apparent volume of distribution Vz, and clearance rate CL.
# [2] = IV 2 mg/kg, ICR mice, individual animal, 2 mg/kg
# [3] = PO 5 mg/kg, ICR mice, individual animal, 5 mg/kg
# [4] = male, ICR, mouse, plasma, iv, 2 mg/kg, IV 2 mg/kg, ICR mice, Mean
# [5] = male, ICR, mouse, plasma, iv, 2 mg/kg, IV 2 mg/kg, ICR mice, individual animal
# [6] = male, ICR, mouse, plasma, po, 5 mg/kg, PO 5 mg/kg, ICR mice, Mean
# [7] = male, ICR, mouse, plasma, po, 5 mg/kg, PO 5 mg/kg, ICR mice, individual animal
smiles,measurement,setting,value
"COc1ncc(-c2nc3c(n2C(C)C)C2(C(=O)Nc4cc(Cl)ccc42)N(c2cc(Cl)ccc2C(C)C)C3=O)c(OC)n1 (centres unmarked) [Example 156, 6-chloro-5′-(5-chloro-2-isopropylphenyl)-2′-(2,4-dimethoxypyrimidin-5-yl)-3′-isopropyl-3′H-spiro[dihydroindole-3,4′-pyrrolo[3,4-d]imidazole]-2,6′(5′H)-dione]",IC50,MDM2,11.2 nM
"COc1cc(C)ncc1-c1nc2c(n1C(C)C)[C@]1(C(=O)Nc3cc(Cl)ccc31)N(c1cc(Cl)ccc1C)C2=O [Example R-154, (R)-6-chloro-5′-(5-chloro-2-methylphenyl)-3′-isopropyl-2′-(4-methoxy-6-methylpyridin-3-yl)-3′H-spiro[dihydroindole-3,4′-pyrrolo[3,4-d]imidazole]-2,6′(5′H)-dione]",IC50,MDM2,31.1 nM
"COc1cc(OCC(F)F)ncc1-c1nc2c(n1C(C)C)[C@]1(C(=O)Nc3cc(Cl)ccc31)N(c1cc(Cl)ccc1C)C2=O [Example R-153, (R)-6-chloro-5′-(5-chloro-2-methylphenyl)-2′-(6-(2,2-difluoroethoxy)-4-methoxypyridin-3-yl)-3′-isopropyl-3′H-spiro[dihydroindole-3,4′-pyrrolo[3,4-d]imidazole]-2,6′(5′H)-dione]",IC50,MDM2,31.1 nM
"COc1cc(C(C)C)ccc1-c1nc2c(n1C(C)C)[C@]1(C(=O)Nc3cc(Cl)ccc31)N(c1cc(Cl)cnc1C)C2=O [Example R-89, (R)-6-chloro-5′-(5-chloro-2-methylpyridin-3-yl)-3′-isopropyl-2′-(4-isopropyl-2-methoxyphenyl)-3′H-spiro[dihydroindole-3,4′-pyrrolo[3,4-d]imidazole]-2,6′(5′H)-dione]",IC50,MDM2,569 nM
"COc1cc(N)ccc1-c1nc2c(n1C(C)C)C1(C(=O)Nc3cc(Cl)ccc31)N(c1ccc(F)c(Cl)c1)C2=O (centres unmarked) [Example 73, 2′-(4-amino-2-methoxyphenyl)-6-chloro-5′-(3-chloro-4-fluorophenyl)-3′-isopropyl-3′H-spiro[dihydroindole-3,4′-pyrrolo[3,4-d]imidazole]-2,6′(5′H)-dione]",inhibitory effect on MDM2 compared with positive control compound HDM201,MDM2,better
"COc1ccncc1-c1nc2c(n1C(C)C)C1(C(=O)Nc3cc(Cl)ccc31)N(c1cc(Cl)ccc1C)C2=O (centres unmarked) [Example 18, 6-chloro-5′-(5-chloro-2-methylphenyl)-3′-isopropyl-2′-(4-methoxypyridin-3-yl)-3′H-spiro[dihydroindole-3,4′-pyrrolo[3,4-d]imidazole]-2,6′(5′H)-dione]",inhibitory effect on MDM2 compared with positive control compound HDM201,MDM2,better
"COc1cc(C2CC2)cc(OC)c1-c1nc2c(n1C(C)C)[C@]1(C(=O)Nc3cc(Cl)ccc31)N(c1cc(Cl)ccc1C)C2=O [Example R-108, (R)-6-chloro-5′-(5-chloro-2-methylphenyl)-2′-(4-cyclopropyl-2,6-dimethoxyphenyl)-3′-isopropyl-3′H-spiro[dihydroindole-3,4′-pyrrolo[3,4-d]imidazole]-2,6′(5′H)-dione]",IC50,MDM2,691 nM
"COc1ncc(-c2nc3c(n2C(C)C)[C@H](c2ccc(Cl)cc2)N(c2cc(Cl)cn(C)c2=O)C3=O)c(OC)n1 [HDM201, reference compound]",AUC(0-t),[1]; [2],520.23 ng·h/mL and 622.13 ng·h/mL
same,AUC(0-∞),[1]; [2],600.29 ng·h/mL and 713.62 ng·h/mL
same,CL,[1]; [2],55.5285 mL/min/kg and 46.7105 mL/min/kg
same,Cmax,[1]; [2],459.85 ng/mL and 585.03 ng/mL
same,MRT(0-t),[1]; [2],40.8 min and 39.6 min
same,MRT(0-∞),[1]; [2],58.8 min and 57.6 min
same,Vz,[1]; [2],3.23181 L/kg and 2.7173 L/kg
same,t1/2,[1]; [2],40.2 min
same,F*,"[1]; PO 5 mg/kg vs IV 2 mg/kg, ICR mice",78.76%
same,AUC(0-t),[1]; [3],797.19 ng·h/mL and 1522.78 ng·h/mL
same,AUC(0-∞),[1]; [3],818.45 ng·h/mL and 1539.76 ng·h/mL
same,Cmax,[1]; [3],584.08 ng/mL and 715.01 ng/mL
same,MRT(0-t),[1]; [3],62.4 min and 109 min
same,MRT(0-∞),[1]; [3],69 min and 115 min
same,t1/2,[1]; [3],44.4 min and 74.4 min
same,AUC(0-inf),[1]; [4],644 ng·h/mL
same,clearance,[1]; [4],52 mL/min/kg
same,AUC(0-t),"[1]; male, ICR, mouse, plasma, iv, 2 mg/kg, IV 2 mg/kg, ICR mice, Mean, read-out: AUC(0-t)",572 ng·h/mL
same,Cmax,"[1]; male, ICR, mouse, plasma, iv, 2 mg/kg, IV 2 mg/kg, ICR mice, Mean, read-out: Cmax",550 ng/mL
same,MRT last,[1]; [4],38.4 min
same,MRT inf,[1]; [4],54 min
same,Tmax,[1]; [4],4.98 min
same,Vd,[1]; [4],2.8 L/kg
same,half-life,[1]; [4],37.2 min
same,AUC(0-inf),[1]; [5],619 ng·h/mL
same,clearance,[1]; [5],53.8 mL/min/kg
same,AUC(0-t),"[1]; male, ICR, mouse, plasma, iv, 2 mg/kg, IV 2 mg/kg, ICR mice, individual animal, read-out: AUC(0-t)",574 ng·h/mL
same,Cmax,"[1]; male, ICR, mouse, plasma, iv, 2 mg/kg, IV 2 mg/kg, ICR mice, individual animal, read-out: Cmax",606 ng/mL
same,MRT last,[1]; [5],35.4 min
same,MRT inf,[1]; [5],45 min
same,Tmax,[1]; [5],4.8 min
same,Vd,[1]; [5],2.46 L/kg
same,half-life,[1]; [5],31.8 min
same,AUC(0-inf),[1]; [6],1150 ng·h/mL
same,AUC(0-t),"[1]; male, ICR, mouse, plasma, po, 5 mg/kg, PO 5 mg/kg, ICR mice, Mean, read-out: AUC(0-t)",1130 ng·h/mL
same,Cmax,"[1]; male, ICR, mouse, plasma, po, 5 mg/kg, PO 5 mg/kg, ICR mice, Mean, read-out: Cmax",569 ng/mL
same,MRT last,[1]; [6],96 min
same,MRT inf,[1]; [6],103 min
same,Tmax,[1]; [6],30 min
same,half-life,[1]; [6],66.6 min
same,AUC(0-inf),[1]; [7],1080 ng·h/mL
same,AUC(0-t),"[1]; male, ICR, mouse, plasma, po, 5 mg/kg, PO 5 mg/kg, ICR mice, individual animal, read-out: AUC(0-t)",1060 ng·h/mL
same,Cmax,"[1]; male, ICR, mouse, plasma, po, 5 mg/kg, PO 5 mg/kg, ICR mice, individual animal, read-out: Cmax",409 ng/mL
same,MRT last,[1]; [7],116 min
same,MRT inf,[1]; [7],125 min
same,Tmax,[1]; [7],30 min
same,half-life,[1]; [7],80.4 min
same,AUC(0-t),"[1]; male, ICR, mouse, plasma, po, 5 mg/kg, oral intragastric administration 5 mg/kg, read-out: AUC0-t",1130 ng·h/mL
same,bioavailability,"[1]; male, ICR, mouse, plasma, oral intragastric administration 5 mg/kg, read-out: bioavailability",78.8%
